Assay results: the METLIN SMRT retention time set (Domingo-Almenara et al. 2019)

Test: gradient 5% acetonitrile 3 min, to 50% in 2 min, to 85% in 15 min, held 3 min, 100 µL/min
Conditions: column: Zorbax Extend-C18 2.1 x 50 mm; eluents: water / acetonitrile, 0.1% formic acid
Method in brief: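 Retention time was recorded from adduct peaks, which were picked computationally and each inspected manually. Pure standards ran in mixtures of ~100 molecules on HPLC coupled to a quadrupole time-of-flight mass spectrometer, in positive and negative ionization mode, through a Zorbax Extend-C18 column (2.1 × 50 mm, 1.8 μm) at 100 μL/min. Eluents were water and acetonitrile, each with 0.1% formic acid.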

Structure (SMILES) | RP-LC retention time [s]
Cc1ccc(CNC(=O)C2CCCN(c3nc4ccsc4c(=O)n3Cc3ccc(F)cc3)C2)cc1 (stereo not given) | 1010
O=C(NCc1cccc(Br)c1)c1cn2nc(Cl)ccc2n1 | 867
CCOc1ccc2nc(Nc3ncc4c(n3)CC(c3cccs3)CC4=O)nc(C)c2c1 (stereo not given) | 795
Cn1cc(CCNC(=O)Nc2ccc(F)cc2)c2cccnc21 | 679
Cc1ccc2c(Nc3cccc(Cl)c3)c(-c3nc(C)no3)cnc2n1 | 808
Cc1cccc(OCc2nc(-c3ccc(-c4csc(C)n4)cc3)no2)c1 | 1250
Cc1ccc2oc(-c3noc(C(=O)NC(C)Cc4ccco4)n3)c(C)c2c1 (stereo not given) | 1180
CSc1cccc(NC(=O)Cn2cccc(-c3nc(-c4ccccc4)no3)c2=O)c1 | 911
CCOC(=O)CNC(=O)N1CCCC1c1ccccc1C (stereo not given) | 768
CCOC(=O)c1[nH]c(C)c(CCC(=O)N2CCCC(C(=O)NC3CCCCC3)C2)c1C (stereo not given) | 822
CCc1cc2c(cc1N1CCC(N3CCOCC3)CC1)C(C)(C)c1[nH]c3cc(C#N)ccc3c1C2=O | 740
COc1ccc(-c2nnc(-c3ccc(Cl)c(S(=O)(=O)N4CCCCCC4)c3)o2)cc1 | 1210
Cc1ccnc(N2CCCC(C(=O)NCC3CCN(Cc4ccccc4F)CC3)C2)n1 (stereo not given) | 608
Cc1sc(NC(=O)CCCC(=O)O)nc1-c1ccccc1 | 752
Cc1cc(OCC(=O)Nc2c(C)cccc2C)nc(N2CCN(c3ccccc3)CC2)n1 | 861
CC(=O)N1c2ccc(S(=O)(=O)N3CCOCC3)cc2CC1C(=O)N1CCN(c2ccccc2)CC1 (stereo not given) | 776
Cn1nc(COc2ccccc2)c2c1CCN(C(=O)c1ccccn1)C2 | 687
CC(C)C(=O)N1CCCc2ccc(NC(=O)c3ccc(F)c(F)c3)cc21 | 871
Cc1c(CCC(=O)N2CCC(C(N)=O)CC2)c(=O)oc2cc3oc4c(c3cc12)CCCC4 | 795
O=C1CCCN1c1ccc(Cn2cccc(S(=O)(=O)N3CCCC3)c2=O)cc1 | 696
O=C(Nc1c(-c2ccccc2)nc2ccccn12)c1ccco1 | 598
COc1ccc(NC(=O)N2CCC(N3C[C@H]4C[C@H](C3)[C@H]3CCCC(=O)N3C4)CC2)cc1 | 573

Structure (SMILES) | RP-LC retention time [s]
O=C(Nc1ccc2c(c1)OCO2)C1CCCN(c2ncnc3c2nc2n3CCCCC2)C1 (stereo not given) | 759
Cc1ccc(-c2ncc(NC(=O)C(C)(C)C)cn2)cc1 | 968
O=C(CCC(=O)N1CCN(C(c2ccccc2)c2ccccc2)CC1)Nc1noc2ccccc12 | 718
O=C(CCC1CCCCC1)Nc1cccc(-c2cn3cccnc3n2)c1 | 823
CCCn1cc(S(=O)(=O)Nc2cccc(C)c2C)c2cccnc21 | 943
Cc1ccc(C)c(CN2C[C@@H]3C(=O)N(C)C(=O)[C@@H]3C2)c1 | 611
CCS(=O)(=O)c1nc2ccc(NS(=O)(=O)c3c(C)c(C)cc(C)c3C)cc2s1 | 1020
COc1ccc(N2CCN(C(=O)c3ccc(=O)n(CCN4CCOCC4)c3)CC2)cc1 | 578
Cn1cnc(S(=O)(=O)N2CCC(C(=O)Nc3ccc(F)c(F)c3)CC2)c1 | 709
CC(NC(=O)CCNc1c(-c2cccc(F)c2)nc2cnccn12)c1cccs1 (stereo not given) | 728
CCNC(=O)C(=O)NCC(c1ccc2c(c1)CCCN2C)N1CCCC1 (stereo not given) | 615
O=C(Cn1ccc2ccccc21)NCc1c(F)cccc1F | 826
O=C1CN(S(=O)(=O)c2ccccc2F)CC2(CCCCC2)N1C1CCCC1 | 1140
Cc1ccsc1CN1CCn2c(nnc2[C@@H]2C[C@@H](O)CN2Cc2cccnc2)C1 | 591
COc1ccc(NS(=O)(=O)c2sc3ccc(Cl)cc3c2C)cc1N1CCNCC1 | 781
OC(CNCc1ccc(-c2ccc(F)cc2)o1)c1ccccc1 (stereo not given) | 687
O=C(CN1CCN(Cc2ccc(F)cc2)C1=O)NCCc1ccccn1 | 552
CS(=O)(=O)N1CCCc2cc(C(=O)Nc3ccc(Br)cc3F)ccc21 | 951
COc1cc2c(cc1OC)C1C(C(=O)Nc3ccc4c(c3)OCO4)c3ccccc3C(=O)N1CC2 (stereo not given) | 779
CC(C)CC(=O)N1CC[C@@H]2COCCN(C)[C@@H]2C1 | 575
Cc1ccc(Cn2c(=O)c(SCC(=O)NC3CC3)nc3ccccc32)cc1 | 893
O=C(NC1CC1)C1COC2(CCN(C(=O)c3cccc(Cl)c3)CC2)N1C(=O)c1cccc(F)c1 (stereo not given) | 738

Structure (SMILES) | RP-LC retention time [s]
CC1CCN(C(=O)C2c3ccccc3CCN2CC(=O)NCC2CCCCC2)CC1 (stereo not given) | 1070
Cc1ccc(-n2c(=O)c3c(cc(C)n3C)n(CC(=O)Nc3ccc(C)c(C)c3)c2=O)cc1 | 906
CCCOc1ccc(CN2C[C@@H]3C(=O)N(CCCN4CCCC4=O)C(=O)[C@@H]3C2)cc1 | 630
Cc1c(Cl)cccc1-n1ccn2cc(-c3ccccc3)nc2c1=O | 880
Cc1cc(=O)n(CC(=O)NCCC2=CCCCC2)c(N2CCCCC2)n1 | 734
CCC(NC(=O)C1CCN(c2cnc3nccnc3c2)CC1)c1cccs1 (stereo not given) | 702
O=C(NCC1CCN(C(=O)c2cc3ccccc3o2)CC1)C(=O)NCC1CCCO1 (stereo not given) | 691
Cc1nc2c([nH]1)CCN(C(=O)c1ccc(NC(=O)c3ccccc3-c3ccccc3)cc1)c1ccccc1-2 | 795
CC(=O)OC[C@]12CCC(C)=C[C@H]1O[C@@H]1[C@H](O)[C@@H](OC(C)=O)[C@@]2(C)[C@@]12CO2 | 750
COc1ccc(-c2ncc3c(n2)CCN(C(=O)c2ccccc2C(F)(F)F)C3)cc1 | 983
Cc1nc(CCNC(=O)[C@H]2CCCN2C(=O)c2ccc(F)cc2)cs1 | 627
O=C1C2CC=CCC2C(=O)N1c1ccc(N2CCN(c3ccccn3)CC2)c([N+](=O)[O-])c1 (stereo not given) | 676
CC(C)C(=O)Nc1nc(-c2ccc3c(c2)NC(=O)C(C)O3)cs1 (stereo not given) | 787
COc1cc(OC)c(NC(=O)c2c(OC)cc(=O)n3c2CCCC3)cc1Cl | 884
O=c1c2cc(-c3ccc(F)cc3)nn2cnn1Cc1nc(-c2ccc(Cl)c(F)c2)no1 | 1260
O=C(c1ccnc(N2CCNC(c3ccccc3)C2)c1)N1CCCN(c2ncccn2)CC1 (stereo not given) | 596
Cc1cccc(N2CCN(C(=O)c3ccnc(N4CCCC4)n3)CC2)c1 | 894
O=C(Nc1nnc(-c2ccc(Br)cc2)o1)c1ccccc1F | 788
Cn1ncc(Cl)c1C(=O)N1CCCC1c1ccc(F)cc1 (stereo not given) | 825
O=C(Cn1cccc1-c1nnc(C2CC2)o1)NCCc1ccc(Cl)cc1 | 862
Cc1ccccc1-c1noc(Cn2ccn(-c3ccccc3C)c(=O)c2=O)n1 | 880
